This passage reports IC50 results from US7868188B2, “5-heteroaryl thiazoles and their use as PI3K inhibitors” (AstraZeneca AB, priority 2004, dated 2011).

Where a name gives a salt, the structure may show the parent alone.

In test [1] the test system is phosphorylation of Serine 473 in Akt (MDA-MB-468 cells). The test is described as follows: Test (c) In Vitro phospho-Ser473 Akt Assay. As to conditions: Homo sapiens, read-out: IC50 versus Serine 473 in Akt. It counts as cell-based. How it is done: This assay determines the ability of test compounds to inhibit phosphorylation of Serine 473 in Akt as assessed using Acumen Explorer technology (Acumen Bioscience Limited), a plate reader that can be used to rapidly quantitate features of images generated by laser-scanning.
A MDA-MB-468 human breast adenocarcinoma cell line (LGC Promochem, Teddington, Middlesex, UK, Catalogue No. HTB-132) was routinely maintained at 37° C. with 5% CO2 up to a confluency of 70-90% in DMEM containing 10% heat-inactivated FCS and 1% L-glutamine.
For the assay, the cells were detached from the culture flask using ‘Accutase’ (Innovative Cell Technologies Inc., San Diego, Calif., USA; Catalogue No. AT104) using standard tissue culture methods and resuspended in media to give 1.7×10^5 cells per ml. Aliquots (90 μl) were seeded into each of the inner 60 wells of a black Packard 96 well plate (PerkinElmer, Boston, Mass., USA; Catalogue No. 6005182) to give a density of ˜15000 cells per well. Aliquots (90 μl) of culture media were placed in the outer wells to prevent edge effects. The cells were incubated overnight at 37° C. with 5% CO2 to allow them to adhere.
On day 2, the cells were treated with test compounds and incubated for 2 hours at 37° C. with 5% CO2. Test compounds were prepared as 10 mM stock solutions in DMSO and serially diluted as required with growth media to give a range of concentrations that were 10-fold the required final test concentrations. Aliquots (10 μl) of each compound dilution were placed in a well (in triplicate) to give the final required concentrations. As a minimum response control, each plate contained wells having a final concentration of 100 μM LY294002 (Calbiochem, Beeston, UK, Catalogue No. 440202). As a maximum response control, wells contained 1% DMSO instead of test compound. Following incubation, the contents of the plates were […] by treatment with a 1.6% aqueous formaldehyde solution (Sigma, Poole, Dorset, UK, Catalogue No. F1635) at room temperature for 1 hour.
All subsequent aspiration and wash steps were carried out using a Tecan 96 well late washer (aspiration speed 10 mm/sec). The fixing solution was removed and the contents of the plates were washed with phosphate-buffered saline (PBS; 50 μl; Gibco, Catalogue No. 10010015). The contents of the plates were treated for 10 minutes at room temperature with an aliquot (50 μl) of a cell permeabilisation buffer consisting of a mixture of PBS and 0.5% Tween-20. […] An aliquot of PBS (50 μl) was added to each well and the plates were sealed with black plate sealers and the fluorescence signal was detected and analysed.
Fluorescence dose response data obtained with each compound were analysed and the degree of inhibition of Serine 473 in Akt was expressed as an IC50 value.

In a further test the target is T1, p110α Type Ia human PI3K (Homo sapiens, UniProt P42336).
T1 construct: full length DNA of each of the p110α, p110β and p110δ Type Ia human PI3K p110 isoforms; 6-His; made in house; host or cells: baculovirus expression system (Sf9 is named only for PI3Kγ)
T1 sequence (P42336 whole entry, canonical isoform): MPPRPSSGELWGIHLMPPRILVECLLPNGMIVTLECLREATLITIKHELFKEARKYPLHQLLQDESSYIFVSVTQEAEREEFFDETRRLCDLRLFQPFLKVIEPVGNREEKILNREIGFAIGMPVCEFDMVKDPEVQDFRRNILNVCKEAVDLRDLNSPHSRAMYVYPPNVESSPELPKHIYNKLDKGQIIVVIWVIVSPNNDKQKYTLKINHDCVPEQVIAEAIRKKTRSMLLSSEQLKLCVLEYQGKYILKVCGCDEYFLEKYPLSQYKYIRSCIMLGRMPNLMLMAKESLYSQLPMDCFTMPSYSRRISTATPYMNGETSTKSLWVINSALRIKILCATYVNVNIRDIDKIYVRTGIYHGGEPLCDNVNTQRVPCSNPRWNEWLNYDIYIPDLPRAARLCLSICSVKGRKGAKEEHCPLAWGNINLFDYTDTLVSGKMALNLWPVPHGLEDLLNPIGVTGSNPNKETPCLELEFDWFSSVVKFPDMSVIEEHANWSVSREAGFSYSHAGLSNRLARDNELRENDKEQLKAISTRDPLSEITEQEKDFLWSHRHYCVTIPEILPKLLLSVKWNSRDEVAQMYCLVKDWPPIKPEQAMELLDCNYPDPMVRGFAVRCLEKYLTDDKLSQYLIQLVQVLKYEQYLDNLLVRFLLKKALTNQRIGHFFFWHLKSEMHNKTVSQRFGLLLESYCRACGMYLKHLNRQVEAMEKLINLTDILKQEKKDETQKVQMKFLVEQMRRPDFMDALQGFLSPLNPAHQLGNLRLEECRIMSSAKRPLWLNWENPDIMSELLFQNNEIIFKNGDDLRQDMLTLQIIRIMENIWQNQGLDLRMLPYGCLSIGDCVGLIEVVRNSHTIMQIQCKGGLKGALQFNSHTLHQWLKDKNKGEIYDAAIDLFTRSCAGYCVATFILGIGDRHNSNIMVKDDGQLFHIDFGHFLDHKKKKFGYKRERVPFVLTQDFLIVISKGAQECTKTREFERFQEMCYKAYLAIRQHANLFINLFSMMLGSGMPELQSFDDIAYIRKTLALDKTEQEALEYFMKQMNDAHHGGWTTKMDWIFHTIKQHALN
T1 sequence (P27986 whole entry partner, canonical isoform): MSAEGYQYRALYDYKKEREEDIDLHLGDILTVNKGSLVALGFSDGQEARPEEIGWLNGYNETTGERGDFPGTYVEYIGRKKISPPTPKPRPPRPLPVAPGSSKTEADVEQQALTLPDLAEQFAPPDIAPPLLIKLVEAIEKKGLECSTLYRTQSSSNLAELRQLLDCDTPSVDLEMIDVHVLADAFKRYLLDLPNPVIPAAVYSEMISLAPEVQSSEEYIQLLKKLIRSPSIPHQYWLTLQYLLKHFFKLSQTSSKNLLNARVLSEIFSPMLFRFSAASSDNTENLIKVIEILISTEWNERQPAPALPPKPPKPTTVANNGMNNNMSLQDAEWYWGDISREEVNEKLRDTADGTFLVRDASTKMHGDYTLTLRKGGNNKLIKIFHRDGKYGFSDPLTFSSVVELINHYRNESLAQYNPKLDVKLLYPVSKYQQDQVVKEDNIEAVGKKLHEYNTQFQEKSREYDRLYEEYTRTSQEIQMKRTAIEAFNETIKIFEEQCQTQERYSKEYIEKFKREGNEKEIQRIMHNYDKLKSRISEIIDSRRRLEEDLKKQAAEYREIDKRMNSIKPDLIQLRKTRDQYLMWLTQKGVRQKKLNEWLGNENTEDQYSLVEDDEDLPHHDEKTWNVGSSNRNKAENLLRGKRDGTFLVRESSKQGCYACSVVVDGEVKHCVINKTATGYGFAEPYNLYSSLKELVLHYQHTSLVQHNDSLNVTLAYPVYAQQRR
Kind of test: Test (a) In Vitro PI3K Enzyme Assay (AlphaScreen). Type of test: biochemical. As to conditions: read-out: IC50 versus p110α PI3K. The source says:
The assay used AlphaScreen technology (Gray et al., Analytical Biochemistry, 2003, 313: 234-245) to determine the ability of test compounds to inhibit phosphorylation by recombinant Type I PI3K enzymes of the lipid PI(4,5)P2.
DNA fragments encoding human PI3K catalytic and regulatory subunits were isolated from cDNA libraries using standard molecular biology and PCR cloning techniques. The selected DNA fragments were used to generate baculovirus expression vectors. In particular, full length DNA of each of the p110α, p110β and p110δ Type Ia human PI3K p110 isoforms (EMBL Accession Nos. HSU79143, S67334, Y10055 for p110α, p110β and p110δ respectively) were sub-cloned into a pDEST10 vector (Invitrogen Limited, Fountain Drive, Paisley, UK). The vector is a Gateway-adapted version of Fastbac1 containing a 6-His epitope tag. A truncated form of Type Ib human PI3K p110γ isoform corresponding to amino acid residues 144-1102 (EMBL Accession No. X8336A) and the full length human p85α regulatory subunit (EMBL Accession No. HSP13KIN) were also sub-cloned into pFastBac1 vector containing a 6-His epitope tag. The Type Ia p110 constructs were co-expressed with the p85α regulatory subunit. Following expression in the baculovirus system using standard baculovirus expression techniques, expressed proteins were purified using the His epitope tag using standard purification techniques.
DNA corresponding to amino acids 263 to 380 of human general receptor for phosphoinositides (Grp1) PH domain was isolated from a cDNA library using standard molecular biology and PCR cloning techniques. The resultant DNA fragment was sub-cloned into a pGEX 4T1 E. coli expression vector containing a GST epitope tag (Amersham Pharmacia Biotech, Rainham, Essex, UK) as described by Gray et al., Analytical Biochemistry, 2003, 313: 234-245). The GST-tagged Grp1 PH domain was expressed and purified using standard techniques.
Test compounds were prepared as […] stock solutions in DMSO and diluted into water as required to give a range of final assay concentrations. Aliquots (2 μl) of each compound dilution were placed into a well of a Greiner 384-well low volume (LV) white polystyrene plate (Greiner Bio-one, Brunel Way, Stonehouse, Gloucestershire, UK Catalogue No. 784075). […]
Biotinylated-DiC8-PI(3,4,5)P3 (50 nM; Cell Signals Inc., Catalogue No. 107), recombinant purified GST-Grp1 PH protein (2.5 nM) and AlphaScreen Anti-GST donor and acceptor beads (100 ng; Packard Bioscience Limited, Station Road, Pangbourne, Berkshire, UK, Catalogue No. 6760603M) were added and the assay plates were left for about 5 to 20 hours at room temperature in the dark. The resultant signals arising from laser light excitation at 680 nm were read using a Packard AlphaQuest instrument. […]

Consider `CC(=O)Nc1nc(C)c(-c2cnc(Cl)c(NS(=O)(=O)c3ccccc3)c2)s1` [Example 13, N-{5-[6-Chloro-5-(phenylsulfonylamino)pyridin-3-yl]-4-methyl-1,3-thiazol-2-yl}acetamide trifluoroacetate], for which the IC50 in test [1] is ~20 nM; on p110α Type Ia human PI3K it was ~10 nM.

By IC50 is commonly meant the concentration that inhibits the measured activity by half.
